Measured values: ChEMBL document CHEMBL3638874, “Pyrrolopyrimidine compounds and their uses” (2015)

Key:
[1] = target: Cyclin-dependent kinase 2 (Homo sapiens, UniProt P24941); assay: (§1) IMAP-FPT (Molecular Devices Trade Mark Technology) Endpoint Assay: The assay was run under the conditions identical to that for CDK1/cyclin B except 0.25 nM CDK1/cyclin B was replaced with 0.3 nM CDK2/cyclin A. A 384-well microtiter IMAP-FPT (Molecular Devices Trade Mark Technology) endpoint assay was used for CDK1/cyclin B kinase activity measurements. The same assay was used for IC50 determination of small molecule inhibitors. In general, the kinase reactions were carried out in 20 μL volumes in the reaction solution, which is composed of 2 μL compound (in 20% DMSO), 8 μL CDK1/cyclin B in the 1× Reaction Buffer (Molecular Devices, Cat. No. R8139), 10 μL substrate mixture of Tamra Histone-H1 peptide (Molecular Devices, Cat. No. R7384) and ATP (Amersham Pharmacia, Cat. No. 27-2056-01) in the 1× Reaction Buffer with 1 mM DTT freshly added. The final reaction mixture contains compound (inhibitor) with the concentration varying from 0.005-10 μM, 2% DMSO, 0.25 nM CDK1/cyclin B, 100 nM Tamra Histone-H1 peptide, and 20 μM ATP.
[2] = target: Cyclin-dependent kinase 1 (Homo sapiens, UniProt P06493); assay: as §1, with “Assay:” for “Assay: The assay was run under the conditions identical to that for CDK1/cyclin B except 0.25 nM CDK1/cyclin B was replaced with 0.3 nM CDK2/cyclin A.”, “uL” for “μL”, “1x” for “1×”, “uM,” for “μM,”, “uM ATP.All reactions were run at room temperature in black 384-well flat-bottom Costar plates (Corning, Cat. No. 3710) for 120 min then were quenched.” for “μM ATP.”
Sequence of Cyclin-dependent kinase 1 (P06493 whole entry): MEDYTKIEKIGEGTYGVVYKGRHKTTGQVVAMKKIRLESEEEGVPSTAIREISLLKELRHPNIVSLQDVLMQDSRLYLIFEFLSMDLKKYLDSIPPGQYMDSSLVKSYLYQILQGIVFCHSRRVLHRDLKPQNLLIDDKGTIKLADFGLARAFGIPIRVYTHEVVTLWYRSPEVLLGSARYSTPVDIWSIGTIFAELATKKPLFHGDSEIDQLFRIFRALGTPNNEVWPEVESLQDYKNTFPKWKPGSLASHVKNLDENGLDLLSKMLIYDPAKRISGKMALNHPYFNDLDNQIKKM

IC50 [1]: > 15 µM
IC50 [2]: > 15 µM
Compound: CN(C)C(=O)c1cc2cnc(Nc3ccc(N4CCNCC4=O)cn3)nc2n1C1CCCC1
